Values joined by “and” are separate entries in the source; they are usually repeats but may differ in a detail not shown here. Equal entries are not always repeated.
Test system: Th2 cells
Experiment: Th2 polarization, IL-4 by flow cytometry (Figure 1G)
Assay type: cell-based, mouse
Method: Naive CD4^+ T cells were isolated from the spleens of C57BL/6J or CD45.1^+ OT-II mice using the MojoSort Mouse CD4 Naive T Cell Isolation Kit (BioLegend, catalog 480040), following the manufacturer’s protocol. Purified cells were cultured in RPMI-1640 medium supplemented with 10% FBS, 1% penicillin-streptomycin, and 0.1% β-mercaptoethanol (Gibco, catalog 21985023).
T cell polarization was initiated under plate-bound anti-CD3 (2 μg/mL, clone 17A2, BioXCell, catalog BE0002) and soluble anti-CD28 (1 μg/mL, clone 37.51, BioXCell, catalog BE0015-1) stimulation, with the addition of cytokines and neutralizing antibodies specific to each subset. For Th9 cells, these included IL-4 (10 ng/mL, Peprotech, catalog 400-04), TGF-β (1 ng/mL, EPOTO Biotech, catalog HF-2021), anti–IL-12 (5 μg/mL, clone C17.8, BioXCell, catalog BE0051), and anti–IFN-γ (10 μg/mL, clone XMG1.2, BioXCell, catalog BE0055); for Th1 cells, these included IL-12 (10 ng/mL, GenScript, catalog Z03211-50) and anti–IL-4 (5 μg/mL, clone 11B11, BioXCell, catalog BE0045); for Th2 cells, these included IL-4 (50 ng/mL), anti–IFN-γ (20 μg /mL), anti–IL-12 (5 μg/mL), Th17 cells: IL-6 (20 ng/mL, EPOTO Biotech, catalog MF-1006), TGF-β (1 ng/mL), IL-1β (10 ng/mL, Peprotech, catalog AF-211-11B), anti–IFN-γ (10 μg/mL), anti–IL-12 (5 μg/mL), and anti–IL-4 (5 μg/mL); and for Tregs, these included TGF-β (3 ng/mL). […]

With anteiso-C15 Leu7 surfactin [EpA] the “IL-4 expression under Th2 polarization” value (EpA 10 μM, individual replicates, n = 4) was 38.3947 and 41.0302 and 36.7821 and 38.8006 and the “effect on Th2 differentiation” value (result in words) was “only a minor increase in Th2 differentiation”.
